5 molecules from PubChem BioAssay AID1259407 (Chemical Carcinogenesis Research Information System (CCRIS), 2018) can be followed below.

The series concerns CCRIS mutagenicity, Ames/micronucleus/aberration tests. Put plainly: CCRIS mutagenicity studies.
Where [1] appears, read: Test System: AMES SALMONELLA TYPHIMURIUM, Strain/Indicator: TA98, Metabolic Activation: NONE, Method: PREINCUBATION
The mark [2] stands for this setting: Test System: AMES SALMONELLA TYPHIMURIUM, Strain/Indicator: TA100, Metabolic Activation: NONE, Method: PREINCUBATION
The mark [3] stands for this setting: Test System: AMES SALMONELLA TYPHIMURIUM, Strain/Indicator: TA100, Metabolic Activation: NONE, Method: STANDARD PLATE.

Molecules are shown by their SMILES. Active and inactive are the calls of the source. The rule behind the calls is not given here.

Turning to `CC1CCCC1`, the mutagenic call by setting is: (Test System: AMES SALMONELLA TYPHIMURIUM, Strain/Indicator: TA97, Metabolic Activation: HAMSTER, LIVER, S-9, AROCLOR 1254 (10%), Method: PREINCUBATION) “inactive; negative”; (Test System: AMES SALMONELLA TYPHIMURIUM, Strain/Indicator: TA97, Metabolic Activation: HAMSTER, LIVER, S-9, AROCLOR 1254 (30%), Method: PREINCUBATION) “inactive; negative”; (Test System: AMES SALMONELLA TYPHIMURIUM, Strain/Indicator: TA97, Metabolic Activation: NONE, Method: PREINCUBATION) “inactive; negative”; (Test System: AMES SALMONELLA TYPHIMURIUM, Strain/Indicator: TA97, Metabolic Activation: RAT, LIVER, S-9, AROCLOR 1254 (10%), Method: PREINCUBATION) “inactive; negative”; (Test System: AMES SALMONELLA TYPHIMURIUM, Strain/Indicator: TA97, Metabolic Activation: RAT, LIVER, S-9, AROCLOR 1254 (30%), Method: PREINCUBATION) “inactive; negative”; (Test System: AMES SALMONELLA TYPHIMURIUM, Strain/Indicator: TA98, Metabolic Activation: HAMSTER, LIVER, S-9, AROCLOR 1254 (10%), Method: PREINCUBATION) “inactive; negative”. The mutagenic call by setting is: (Test System: AMES SALMONELLA TYPHIMURIUM, Strain/Indicator: TA98, Metabolic Activation: HAMSTER, LIVER, S-9, AROCLOR 1254 (30%), Method: PREINCUBATION) “inactive; negative”; under setting [1], “inactive; negative”; (Test System: AMES SALMONELLA TYPHIMURIUM, Strain/Indicator: TA98, Metabolic Activation: RAT, LIVER, S-9, AROCLOR 1254 (10%), Method: PREINCUBATION) “inactive; negative”; (Test System: AMES SALMONELLA TYPHIMURIUM, Strain/Indicator: TA98, Metabolic Activation: RAT, LIVER, S-9, AROCLOR 1254 (30%), Method: PREINCUBATION) “inactive; negative”; (Test System: AMES SALMONELLA TYPHIMURIUM, Strain/Indicator: TA100, Metabolic Activation: HAMSTER, LIVER, S-9, AROCLOR 1254 (10%), Method: PREINCUBATION) “inactive; negative”; (Test System: AMES SALMONELLA TYPHIMURIUM, Strain/Indicator: TA100, Metabolic Activation: HAMSTER, LIVER, S-9, AROCLOR 1254 (30%), Method: PREINCUBATION) “inactive; negative”. For the same molecule, the mutagenic call is, setting by setting: under setting [2], “inactive; negative”; (Test System: AMES SALMONELLA TYPHIMURIUM, Strain/Indicator: TA100, Metabolic Activation: RAT, LIVER, S-9, AROCLOR 1254 (10%), Method: PREINCUBATION) “inactive; negative”; (Test System: AMES SALMONELLA TYPHIMURIUM, Strain/Indicator: TA100, Metabolic Activation: RAT, LIVER, S-9, AROCLOR 1254 (30%), Method: PREINCUBATION) “inactive; negative”; (Test System: AMES SALMONELLA TYPHIMURIUM, Strain/Indicator: TA1535, Metabolic Activation: HAMSTER, LIVER, S-9, AROCLOR 1254 (10%), Method: PREINCUBATION) “inactive; negative”; (Test System: AMES SALMONELLA TYPHIMURIUM, Strain/Indicator: TA1535, Metabolic Activation: HAMSTER, LIVER, S-9, AROCLOR 1254 (30%), Method: PREINCUBATION) “inactive; negative”; (Test System: AMES SALMONELLA TYPHIMURIUM, Strain/Indicator: TA1535, Metabolic Activation: NONE, Method: PREINCUBATION) “inactive; negative”. Further, the mutagenic call is, setting by setting: (Test System: AMES SALMONELLA TYPHIMURIUM, Strain/Indicator: TA1535, Metabolic Activation: RAT, LIVER, S-9, AROCLOR 1254 (10%), Method: PREINCUBATION) “inactive; negative”; (Test System: AMES SALMONELLA TYPHIMURIUM, Strain/Indicator: TA1535, Metabolic Activation: RAT, LIVER, S-9, AROCLOR 1254 (30%), Method: PREINCUBATION) “inactive; negative”.

As to `CC(=O)Nc1ccc(/C=C/c2ccccc2)cc1`, the mutagenic call (Test System: CHINESE HAMSTER OVARY, Strain/Indicator: AS52/6-THIOGUANINE, Metabolic Activation: NONE) is “inactive; negative” and the mutagenic call (Test System: CHINESE HAMSTER OVARY, Strain/Indicator: AS52/6-THIOGUANINE, Metabolic Activation: RAT LIVER S-9, 2-ACETYLAMINOFLUORENE) is “active; positive”.

Take `O=C1C=CC(=C(Cl)Cl)O1`: the mutagenic call under setting [3] is “active; positive”.

Turning to `N#CC(C#N)=C(C#N)C#N`, the mutagenic call runs as follows: (Test System: AMES SALMONELLA TYPHIMURIUM, Strain/Indicator: TA98, Metabolic Activation: HAMSTER, LIVER, S-9, AROCLOR 1254 (10%), Method: STANDARD PLATE) “inactive; negative”; (Test System: AMES SALMONELLA TYPHIMURIUM, Strain/Indicator: TA98, Metabolic Activation: NONE, Method: STANDARD PLATE) “inactive; negative”; (Test System: AMES SALMONELLA TYPHIMURIUM, Strain/Indicator: TA98, Metabolic Activation: RAT, LIVER, S-9, AROCLOR 1254 (10%), Method: STANDARD PLATE) “inactive; negative”; (Test System: AMES SALMONELLA TYPHIMURIUM, Strain/Indicator: TA100, Metabolic Activation: HAMSTER, LIVER, S-9, AROCLOR 1254 (10%), Method: STANDARD PLATE) “inactive; negative”; under setting [3], “inactive; negative”; (Test System: AMES SALMONELLA TYPHIMURIUM, Strain/Indicator: TA100, Metabolic Activation: RAT, LIVER, S-9, AROCLOR 1254 (10%), Method: STANDARD PLATE) “inactive; negative”. Besides, the mutagenic call (Test System: AMES SALMONELLA TYPHIMURIUM, Strain/Indicator: TA1535, Metabolic Activation: HAMSTER, LIVER, S-9, AROCLOR 1254 (10%), Method: STANDARD PLATE) was “inactive; negative”; the mutagenic call (Test System: AMES SALMONELLA TYPHIMURIUM, Strain/Indicator: TA1535, Metabolic Activation: NONE, Method: STANDARD PLATE) was “inactive; negative”; the mutagenic call (Test System: AMES SALMONELLA TYPHIMURIUM, Strain/Indicator: TA1535, Metabolic Activation: RAT, LIVER, S-9, AROCLOR 1254 (10%), Method: STANDARD PLATE) was “inactive; negative”; the mutagenic call (Test System: AMES SALMONELLA TYPHIMURIUM, Strain/Indicator: TA1537, Metabolic Activation: HAMSTER, LIVER, S-9, AROCLOR 1254 (10%), Method: STANDARD PLATE) is “inactive; negative”; the mutagenic call (Test System: AMES SALMONELLA TYPHIMURIUM, Strain/Indicator: TA1537, Metabolic Activation: NONE, Method: STANDARD PLATE) was “inactive; negative”; the mutagenic call (Test System: AMES SALMONELLA TYPHIMURIUM, Strain/Indicator: TA1537, Metabolic Activation: RAT, LIVER, S-9, AROCLOR 1254 (10%), Method: STANDARD PLATE) is “inactive; negative”. Further, the mutagenic call runs as follows: (Test System: AMES SALMONELLA TYPHIMURIUM, Strain/Indicator: TA1538, Metabolic Activation: HAMSTER, LIVER, S-9, AROCLOR 1254 (10%), Method: STANDARD PLATE) “inactive; negative”; (Test System: AMES SALMONELLA TYPHIMURIUM, Strain/Indicator: TA1538, Metabolic Activation: NONE, Method: STANDARD PLATE) “inactive; negative”; (Test System: AMES SALMONELLA TYPHIMURIUM, Strain/Indicator: TA1538, Metabolic Activation: RAT, LIVER, S-9, AROCLOR 1254 (10%), Method: STANDARD PLATE) “inactive; negative”; (Test System: MOUSE LYMPHOMA, Strain/Indicator: L5178Y (TK+/TK-), Metabolic Activation: NONE, Method: SUSPENSION/PLATE) “inactive; negative. reevaluation of results: inconclusive”; (Test System: MOUSE LYMPHOMA, Strain/Indicator: L5178Y (TK+/TK-), Metabolic Activation: RAT, LIVER, S-9, AROCLOR 1254, Method: SUSPENSION/PLATE) “inactive; negative. reevaluation of results: inconclusive”.

`O=c1oc2ccc([N+](=O)[O-])c3ccc4cccc1c4c23`: the mutagenic call (Test System: AMES SALMONELLA TYPHIMURIUM, Strain/Indicator: TA98(1,8-DNP6), Metabolic Activation: NONE, Method: PREINCUBATION) is “active; positive”; the mutagenic call (Test System: AMES SALMONELLA TYPHIMURIUM, Strain/Indicator: TA98(1,8-DNP6), Metabolic Activation: RAT, LIVER, S-9, AROCLOR 1254, Method: PREINCUBATION) is “inactive; negative”; the mutagenic call (Test System: AMES SALMONELLA TYPHIMURIUM, Strain/Indicator: TA98(NR), Metabolic Activation: NONE, Method: PREINCUBATION) was “active; positive”; the mutagenic call (Test System: AMES SALMONELLA TYPHIMURIUM, Strain/Indicator: TA98(NR), Metabolic Activation: RAT, LIVER, S-9, AROCLOR 1254, Method: PREINCUBATION) was “active; positive”; the mutagenic call under setting [1] was “active; positive”; the mutagenic call (Test System: AMES SALMONELLA TYPHIMURIUM, Strain/Indicator: TA98, Metabolic Activation: RAT, LIVER, S-9, AROCLOR 1254, Method: PREINCUBATION) was “active; positive”. Also, the mutagenic call reads like this: under setting [2], “active; positive”; (Test System: AMES SALMONELLA TYPHIMURIUM, Strain/Indicator: TA100, Metabolic Activation: RAT, LIVER, S-9, AROCLOR 1254, Method: PREINCUBATION) “active; positive”.
